This note sets out measurements from US4965280A, “Antifungal carbinols” (E. I. Du Pont de Nemours and Company, priority 1989, dated 1990).

Structures are written as SMILES. Converted amounts (≈) assume the structure as drawn. Where two headings read alike, the source gives them in different places.

Assay [1] has as its system Venturia inaequalis. As to the kind of experiment: Example A apple scab. Conditions: read-out: disease control rating, Ex. A. It counts as in vivo. Here is the method: The test compounds were dissolved in acetone in an amount equal to 6% of the final volume and then suspended at a concentration of 100 or 20 ppm in purified water containing 250 ppm of the surfactant TREM 014 (polyhydric alcohol esters). This suspension was sprayed to the point of run-off on apple seedings.

The subject of assay [2] is Candida albicans ATCC 11651. The experiment in a line: In vitro antifungal MIC, microtiter broth dilution. Conditions: for MIC: Candida albicans, ATCC11651, 24 h, read-out: MIC values, C. albicans, 30°, 24 hours.
Assay [3] has as its system Aspergillus fumigatus ATCC 28214. The experiment in a line: In vitro antifungal MIC, microtiter broth dilution. Conditions: for MIC: Aspergillus fumigatus, ATCC28214, 24 h, read-out: MIC values, A. fumigatus, 30°, 24 hours.
Method: In vitro activity (Table 5) is expressed in terms of the minimal inhibitory concentration (MIC) of the test compound which inhibits the growth of yeasts and fungi.
The target organisms, Candida albicans ATCC 11651 and Aspergillus fumigatus ATCC 28214 are standardized, [V. Bezjak, J. Clinical Micro., 21 509-512 (1984)], to a concentration of 10^7 organisms/ml and maintained at -70° until use. Test compounds are solubilized in dimethyl sulfoxide (DMSO) and diluted in Eagle's Minimum Essential Medium (EMEM) broth to achieve a final concentration of 200 μg/ml. Stock solutions of standard antifungal agents are stored at -70° and diluted in EMEM as required.
The in vitro assay utilizes a microtiter broth dilution technique [L. Polonelli and G. Morace, Mycopathologia, 86, 21-28 (1984)] and C. […] The appropriate wells are inoculated with the required organism (C. albicans at 1×10^4 organisms/ml and A. fumigatus at 5×10^5 organisms/ml) and the assay incubated at 30° for 24 hours.
The test system of assay [4] is Candida albicans ATCC 11651. As to the kind of experiment: In vivo systemic Candida infection in mice, primary assay. The settings on record: 150 mg/kg per day; for responders at 150 mg/kg: Candida albicans, read-out: % Survival. Set-up: species or system Candida albicans; CF-1 female mice. The gist of the method:
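CF-1 female mice (20 g, 10 per group) were infected IV with 0.2 ml of 1×10^7/ml C. albicans ATCC 11651, then given test compound subcutaneously at 50 or 150 mg/kg/day at 1 and 6 h post-infection and once daily for three more days. Survival was followed for 21 days against infected untreated mice; ≥70% protection at 14 days was scored active.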

In assay [5] the test system is Cercosporidium personatum. The experiment in a line: Example B Peanut Late Leafspot. The format is in vivo. The settings on record: Nothopassalora personata, read-out: disease control rating, Ex. B. The gist of the method: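 Foliar spray on peanut seedlings, to run-off; test rates 100 or 20 ppm. Formulation: acetone at 6% of final volume, water with 250 ppm polyhydric alcohol ester surfactant.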

The test system of assay [6] is Pythium aphanadermatum. The experiment in a line: Example J cucumber damping off. Set-up: key to phytotoxicity entry, Ex. J: P: disease control was not measured due to phytoxicity. It counts as in vivo. The settings on record: 5 kg/ha; for pest or weed control at 5000 g/ha: Pythium, 336 h, read-out: disease control rating, Ex. J. The procedure:
[…] Seeds and soil were then inoculated with a mixture of sand, cereal and mycelium of the fungus Pythium aphanadermatum, causal agent of cucumber damping off, and incubated in a growth chamber at 30° C. for 14 days. Disease ratings were then made.

Assay [7] deals with Rhizoctonia solani. As to the kind of experiment: Example K cotton blight. It counts as in vivo. Conditions: 336 h, 5 kg/ha, read-out: disease control rating, Ex. K. The procedure: […] Seeds and soil were then inoculated with a mixture of sand, cereal and mycelium of the fungus Rhizoctonia solani, causal agent of cotton blight, and incubated in a growth chamber at 30° C. for 14 days. Disease ratings were then made.

In assay [8] the test system is Botrytis cinerea. The experiment in a line: Example C bean grey mold. It counts as in vivo. Conditions: for pest or weed control at 100 ppm / pest or weed control at 20 ppm: Botrytis cinerea, 24 h, read-out: disease control rating, Ex. C. The method in brief:
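Broad bean seedlings; foliar spray to run-off. Cmpd 100 or 20 ppm in water + 250 ppm TREM 014, acetone 6% v/v final.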

For assay [9], the system named is Rhizoctonia solani. As to the kind of experiment: Example F rice sheath blight. It counts as in vivo. The settings on record: for pest or weed control at 100 ppm / pest or weed control at 20 ppm: Rhizoctonia solani, 144 h, read-out: disease control rating, Ex. F. The method in brief: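 Spray to run-off on rice seedlings; test suspension 100 or 20 ppm compound in water + 250 ppm TREM 014 surfactant, acetone 6% final volume.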

Assay [10] concerns Plasmorpara viticola. As to the kind of experiment: Example I grape downy mildew. It counts as in vivo. The settings on record: for pest or weed control at 100 ppm: read-out: disease control rating, Ex. I. The gist of the method: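 First, each compound is taken up in acetone amounting to 6% of the final volume. It is then suspended in purified water containing 250 ppm of the polyhydric alcohol ester surfactant TREM 014, at 100 or 20 ppm. Finally, the suspension is sprayed onto grape seedlings until run-off.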

The test system of assay [11] is Pyricularia oryzae. As to the kind of experiment: whole plant or invertebrate. The format is in vivo. The settings on record: for pest or weed control at 100 ppm / pest or weed control at 20 ppm: Pyricularia oryzae, 120 h; for pest or weed control at 100 ppm: read-out: disease control rating, Ex. E, 100 PPM; for pest or weed control at 20 ppm: read-out: disease control rating, Ex. E, 20 PPM.

For assay [12], the system named is Phytophthora infestans. As to the kind of experiment: whole plant or invertebrate. It counts as in vivo. Conditions: for pest or weed control at 100 ppm: Phytophthora infestans, in Solanum lycopersicum, read-out: disease control rating, Ex. H, 100 PPM.
The subject of assay [13] is Puccinia recondita. The experiment in a line: Example G wheat leaf rust. It counts as in vivo. Conditions: read-out: disease control rating, Ex. G.
In assay [14] the test system is Erysiphe graminis f. sp. tritici. The experiment in a line: Example D wheat powdery mildew. Conditions: Blumeria graminis, 144 h, read-out: disease control rating, Ex. D. It counts as in vivo. Here is the method:
The test compounds were dissolved in acetone in an amount equal to 6% of the final volume and then suspended at a concentration of 100 or 20 ppm in purified water containing 250 ppm of the surfactant TREM 014 (polyhydric alcohol esters). This suspension was sprayed to the point of run-off on wheat seedlings.

Consider `C=C(c1ccccc1Cl)C(O)(Cn1cncn1)c1ccc(F)cc1` (centres unmarked) [Example 32], for which the pest or weed control at 100 ppm in assay [1] was determined as 100%; in assay [5], 100%; in [8] (100 PPM) it was 98%; in assay [9] (100 PPM) it was 33%; in assay [10], 98%; in assay [11], 97%. Besides, the results for the pest or weed control at 100 ppm in [12], in [13] and in [14] were 0%, 100% and 95%, respectively. Further, the minimum inhibitory concentration (MIC) was ≤ 0.4 µg/mL in assay [2] and 1.6 µg/mL (≈ 4.65 µM) in [3]. Moreover, the responders at 150 mg/kg came to 100% in [4] (ATCC11651, 168 h, day 7); 90% in assay [4] (ATCC11651, 336 h, day 14); 50% in [4] (ATCC11651, 504 h, day 21). In addition, the pest or weed control at 5000 g/ha in assay [6] and in assay [7] was 0% throughout.

Regarding `C=C(c1ccccc1C(F)(F)F)C(O)(Cn1cncn1)c1ccc(F)cc1` (centres unmarked) [Example 724], the pest or weed control at 100 ppm in assay [1] was found to be 100%; in [5], 100%; in assay [8] (100 PPM), 95%; in [9] (100 PPM) it was 100%; in assay [10], 0%; in assay [11], 63%. Moreover, the pest or weed control at 100 ppm in assay [12] was determined as 0%; in assay [13] it was 100%; in [14] it was 100%. Moreover, the MIC in assay [2] and in assay [3] was 0.4 µg/mL (≈ 1.06 µM) in each case. In addition, the responders at 150 mg/kg in [4] (ATCC11651, 168 h, day 7) is 100%; in assay [4] (ATCC11651, 336 h, day 14), 90%; in assay [4] (ATCC11651, 504 h, day 21) it was 40%. Further, the pest or weed control at 5000 g/ha in [6] turned out to be 0%.

Consider `C=C(c1ccc(F)cc1)C(O)(Cn1cncn1)c1ccc(F)cc1` (single isomer, unassigned) [Example 1277a], for which the pest or weed control at 20 ppm in assay [1] was 58%; in [5], 74%; in assay [8] it was 24%; in assay [9] it was 0%; in [11], 1%; in [13], 100%. Moreover, in assay [14], the pest or weed control at 20 ppm was 95%. In addition, the “MIC values, C. albicans” value in assay [2] (30°, 24 hours) was 6.3 µg/mL (≈ 19.2 µM). The “MIC values, A. fumigatus” value in assay [3] (30°, 24 hours) came to 100 µg/mL (≈ 305 µM). Moreover, the “% Survival” value is given as 80% in assay [4] (day 7), 0% in [4] (day 14) and 0% in assay [4] (day 21). Further, the “disease control rating, Ex. C” value in assay [8] (100 PPM) came out at 36%. Further, the “disease control rating, Ex. F” value in assay [9] (100 PPM) was found to be 52%. In addition, the “disease control rating, Ex. I” value in [10] (100 PPM) was determined as 31%. Moreover, the “disease control rating, Ex. E” value in assay [11] (100 PPM) was 1%. Moreover, in [12] (100 PPM), the “disease control rating, Ex. H” value stood at 8%.

On to `C=C(c1ccc(C)cc1)C(O)(Cn1cncn1)c1ccc(F)cc1` (centres unmarked) [Example 721], for which the pest or weed control at 100 ppm worked out at 73% in assay [1]; 89% in assay [5]; 95% in [8] (100 PPM); 100% in [9] (100 PPM); 0% in [10]; 18% in assay [11]. The pest or weed control at 100 ppm in assay [12] stood at 0%; in [13], 100%; in [14], 94%. Moreover, the minimal inhibitory concentration (MIC) stood at 0.4 µg/mL (≈ 1.24 µM) in assay [2] and 12.5 µg/mL (≈ 38.7 µM) in [3]. Further, the responders at 150 mg/kg in assay [4] (ATCC11651, 168 h, day 7) amounted to 100%; in assay [4] (ATCC11651, 336 h, day 14), 30%; in assay [4] (ATCC11651, 504 h, day 21), 30%. In addition, the “phytotoxicity entry, Ex. J” value in assay [6] was “P”.

Consider `C=C(CN1CC(C)OC(C)C1)C(O)(Cn1cncn1)c1ccc(F)cc1` (centres unmarked) [Example 477], for which the pest or weed control at 100 ppm in assay [1] was determined as 95%; in assay [5], 100%; in [8] (100 PPM), 76%; in [9] (100 PPM), 48%; in assay [10] it was 0%; in assay [11], 48%. Besides, the pest or weed control at 100 ppm was determined as 0% in assay [12], 100% in assay [13] and 100% in [14]. Moreover, the MIC in assay [2] is > 100 µg/mL. In addition, in [6], the “phytotoxicity entry, Ex. J” value is reported as “P”.

Turning to `C=C(c1ccc(F)cc1)C(O)(Cn1cncn1)c1ccccc1` (centres unmarked) [Example 656], the pest or weed control at 100 ppm in assay [1] is 93%; in assay [5] it was 100%; in assay [8] (100 PPM) it was 88%; in assay [9] (100 PPM), 50%; in [10], 20%; in [11], 0%. Further, the pest or weed control at 100 ppm in assay [12] is 0%; in assay [13], 100%; in assay [14], 97%. The MIC in assay [2] was ≤ 0.4 µg/mL; in assay [3] it was 12.5 µg/mL (≈ 40.4 µM). Besides, the responders at 150 mg/kg is 100% in assay [4] (ATCC11651, 168 h, day 7); 90% in assay [4] (ATCC11651, 336 h, day 14); 40% in [4] (ATCC11651, 504 h, day 21). For the same compound, the pest or weed control at 5000 g/ha in [6] amounted to 0%.

Consider `C=C(c1cccc(Cl)c1)C(O)(Cn1cncn1)c1ccc(F)cc1F` (centres unmarked) [Example 42], for which the pest or weed control at 20 ppm in assay [1] was 29%; in [5], 100%; in assay [8] it was 38%; in assay [9], 0%; in assay [11] it was 15%; in assay [13] it was 100%. In assay [14], the pest or weed control at 20 ppm was determined as 98%. For the same compound, the MIC in [2] stood at 0.03 µg/mL (≈ 0.0829 µM); in assay [3], 6.3 µg/mL (≈ 17.4 µM). The responders at 150 mg/kg was found to be 80% in [4] (ATCC11651, 168 h, day 7); 80% in assay [4] (ATCC11651, 336 h, day 14); 50% in assay [4] (ATCC11651, 504 h, day 21). Besides, the pest or weed control at 100 ppm in assay [8] (100 PPM) amounted to 100%; in [9] (100 PPM) it was 41%; in assay [10] it was 23%; in [11], 31%; in assay [12], 0%; in [14], 100%.
